ChEMBL document CHEMBL4396901, “Discovery of Potent and Noncovalent Reversible EGFR Kinase Inhibitors of EGFRL858R/T790M/C797S” (ACS Med Chem Lett, 2019)
Activity calls are given as the source filed them. The rule behind the calls is not given here.

What was measured:
[1] = tested on: Epidermal growth factor receptor (Homo sapiens), P00533 [L858R,T790M,C797S]; assay: (§1) Inhibition of recombinant human C-terminal His-tagged/N-terminal GST-tagged EGFR (668 to 1210 residues) T790M/L858R/C797S mutant expressed in baculovirus expression system using poly (Glu,Tyr) 4:1 as substrate incubated for 1 hr in presence of ATP by ELISA
Chain of Epidermal growth factor receptor (Homo sapiens), P00533 [L858R,T790M,C797S] (P00533 whole entry T790M/C797S/L858R, the tested form may be a part): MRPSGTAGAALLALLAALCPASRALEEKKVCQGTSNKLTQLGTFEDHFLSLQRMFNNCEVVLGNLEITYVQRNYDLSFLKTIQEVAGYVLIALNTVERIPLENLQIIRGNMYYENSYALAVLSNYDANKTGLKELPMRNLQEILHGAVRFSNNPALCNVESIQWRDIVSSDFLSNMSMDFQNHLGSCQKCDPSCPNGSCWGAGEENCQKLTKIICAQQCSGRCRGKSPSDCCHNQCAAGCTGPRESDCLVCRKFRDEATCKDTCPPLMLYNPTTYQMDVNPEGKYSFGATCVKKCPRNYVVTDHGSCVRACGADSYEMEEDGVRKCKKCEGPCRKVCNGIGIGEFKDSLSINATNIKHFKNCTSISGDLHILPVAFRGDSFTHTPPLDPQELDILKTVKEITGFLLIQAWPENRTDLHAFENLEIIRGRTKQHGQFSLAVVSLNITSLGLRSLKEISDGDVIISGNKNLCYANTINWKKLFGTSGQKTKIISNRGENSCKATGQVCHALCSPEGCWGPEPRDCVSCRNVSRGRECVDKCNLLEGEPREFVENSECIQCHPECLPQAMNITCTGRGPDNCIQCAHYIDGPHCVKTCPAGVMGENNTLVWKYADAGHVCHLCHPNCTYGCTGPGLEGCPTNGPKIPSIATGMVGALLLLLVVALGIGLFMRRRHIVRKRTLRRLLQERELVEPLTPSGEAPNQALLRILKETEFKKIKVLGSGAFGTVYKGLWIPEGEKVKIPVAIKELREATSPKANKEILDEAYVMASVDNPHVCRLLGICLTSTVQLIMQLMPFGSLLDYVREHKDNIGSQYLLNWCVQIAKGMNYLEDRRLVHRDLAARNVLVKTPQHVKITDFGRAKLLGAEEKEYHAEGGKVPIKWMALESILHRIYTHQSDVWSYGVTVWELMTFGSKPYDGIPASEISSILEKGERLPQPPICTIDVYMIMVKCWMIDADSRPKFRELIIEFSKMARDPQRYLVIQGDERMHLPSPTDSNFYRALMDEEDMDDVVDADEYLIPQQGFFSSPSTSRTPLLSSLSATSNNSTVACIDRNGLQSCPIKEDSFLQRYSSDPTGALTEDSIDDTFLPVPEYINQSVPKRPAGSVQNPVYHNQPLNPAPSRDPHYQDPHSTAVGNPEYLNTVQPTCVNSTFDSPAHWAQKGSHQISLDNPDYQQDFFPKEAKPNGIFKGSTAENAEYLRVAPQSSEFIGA

[2] = tested on: Epidermal growth factor receptor (Homo sapiens), P00533 [L858R,T790M]; assay: Inhibition of human EGFR T790M/L858R mutant using poly (Glu,Tyr) 4:1 as substrate incubated for 1 hr in presence of ATP by ELISA
Chain of Epidermal growth factor receptor (Homo sapiens), P00533 [L858R,T790M] (P00533 whole entry T790M/L858R, looked up): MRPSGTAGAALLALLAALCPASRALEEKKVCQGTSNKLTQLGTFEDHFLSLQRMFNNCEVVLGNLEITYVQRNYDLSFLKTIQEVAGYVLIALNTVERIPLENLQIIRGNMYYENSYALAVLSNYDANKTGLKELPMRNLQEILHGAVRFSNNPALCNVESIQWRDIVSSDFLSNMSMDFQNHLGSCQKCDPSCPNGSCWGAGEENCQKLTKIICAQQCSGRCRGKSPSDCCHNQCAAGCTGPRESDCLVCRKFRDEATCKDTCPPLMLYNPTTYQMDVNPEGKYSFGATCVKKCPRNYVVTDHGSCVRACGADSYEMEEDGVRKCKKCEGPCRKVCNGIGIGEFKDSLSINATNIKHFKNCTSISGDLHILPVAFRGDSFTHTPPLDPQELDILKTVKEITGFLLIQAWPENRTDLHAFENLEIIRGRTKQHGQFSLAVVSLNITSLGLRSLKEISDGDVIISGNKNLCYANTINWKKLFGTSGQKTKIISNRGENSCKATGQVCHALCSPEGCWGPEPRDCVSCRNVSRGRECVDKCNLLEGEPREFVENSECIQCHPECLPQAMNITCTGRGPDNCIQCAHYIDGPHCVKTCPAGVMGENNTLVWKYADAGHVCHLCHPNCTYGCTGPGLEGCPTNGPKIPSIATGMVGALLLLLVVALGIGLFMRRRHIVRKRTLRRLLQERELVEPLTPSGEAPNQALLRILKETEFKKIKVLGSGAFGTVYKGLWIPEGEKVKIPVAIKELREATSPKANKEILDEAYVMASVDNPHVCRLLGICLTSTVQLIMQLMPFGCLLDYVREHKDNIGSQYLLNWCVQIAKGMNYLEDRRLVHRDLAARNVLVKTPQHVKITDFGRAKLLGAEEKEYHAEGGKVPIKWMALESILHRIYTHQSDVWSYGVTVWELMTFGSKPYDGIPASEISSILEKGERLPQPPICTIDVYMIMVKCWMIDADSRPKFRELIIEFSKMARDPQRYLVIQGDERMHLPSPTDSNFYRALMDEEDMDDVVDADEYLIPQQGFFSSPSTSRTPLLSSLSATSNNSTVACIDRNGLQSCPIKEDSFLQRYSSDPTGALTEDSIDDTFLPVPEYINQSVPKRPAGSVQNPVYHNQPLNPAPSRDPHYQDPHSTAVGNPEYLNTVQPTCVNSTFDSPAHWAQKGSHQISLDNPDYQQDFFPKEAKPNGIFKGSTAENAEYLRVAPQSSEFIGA

[3] = target: Epidermal growth factor receptor (Homo sapiens, UniProt P00533, C797S/L858R/T790M); assay: as §1
Chain of Epidermal growth factor receptor (P00533 whole entry T790M/C797S/L858R): as the sequence (P00533 whole entry T790M/C797S/L858R, the tested form may be a part) above

NCI-H1975 = assay: Antiproliferative activity human NCI-H1975 cells incubated for 72 hrs by SRB assay; format: functional, cell-based; conditions: NCI-H1975, 72 h
BaF3 [4] = assay: Cytotoxicity against mouse BAF3 cells incubated for 72 hrs by resazurin dye based assay; format: cell-based; conditions: BaF3, 72 h
A-431 = assay: Antiproliferative activity human A431 cells incubated for 72 hrs by SRB assay; format: functional, cell-based; conditions: A-431, 72 h
BaF3 [5] = assay: Antiproliferative activity against mouse BAF3 cells transfected with EGFR L858R/T790M/C797S mutant (unknown origin) incubated for 72 hrs by resazurin dye based assay; format: functional, cell-based; conditions: BaF3, 72 h

Structure (SMILES) | inhibition [1] | other results
COc1cc2nc(N)nc(Nc3ccc(NC(=O)C(c4ccccc4)N4Cc5ccccc5C4=O)cc3F)c2cc1OC (centres undefined) | inactive | inhibition [2]: inactive
COc1cc2c(Nc3cc(NC(=O)C(c4ccccc4)N4Cc5ccccc5C4=O)ccc3F)ncnc2cc1OCC1CCN(C)CC1 (centres undefined) | – | IC50 [3]: 37.1 nM
COc1cc2c(Nc3ccc(NC(=O)C(c4ccccc4)C(C)C)cc3F)ncnc2cc1OCC1CCN(C)CC1 (centres undefined) | inactive | –
COc1cc2c(Nc3ccc(NC(=O)C(C)c4ccccc4)cc3F)ncnc2cc1OCC1CCN(C)CC1 (centres undefined) | inactive | –
COc1cc2c(Nc3ccc(NC(=O)C(c4ccccc4)N4Cc5ccccc5C4=O)cc3F)ncnc2cc1OCC1CCN(C)CC1 (centres undefined) | – | IC50 [3]: 9.3 nM
COc1cc2c(Nc3ccc(NC(=O)C(c4ccccc4)c4ccccc4)cc3F)ncnc2cc1OCC1CCN(C)CC1 | inactive | –
COc1cc2ncnc(Nc3ccc(NC(=O)C(c4ccccc4)N4Cc5ccccc5C4=O)cc3F)c2cc1OC (centres undefined) | Active | –
C=CC(=O)Nc1cc(Nc2nccc(-c3cn(C)c4ccccc34)n2)c(OC)cc1N(C)CCN(C)C [OSIMERTINIB] | – | IC50 (NCI-H1975): […]; IC50 (BaF3 [4]): 5110 nM; IC50 (A-431): […]; IC50 (BaF3 [5]): 3930 nM
COc1cc2c(Nc3cc(NC(=O)CC4Cc5ccccc5C4)ccc3F)ncnc2cc1OCC1CCN(C)CC1 | inactive | –
COc1cc2c(Nc3ccc(NC(=O)c4ccccc4)cc3F)ncnc2cc1OCC1CCN(C)CC1 | inactive | –
